Reference: ChEMBL document CHEMBL4406837, “Cyclin dependent kinase (CDK) inhibitors as anticancer drugs: Recent advances (2015-2019)” (Bioorg Med Chem Lett, 2019)
Values belong to the compound of their own block, whether it stands above or below them.

Assays:
[1] = molecular target: T1, Cyclin-dependent kinase 2 (Homo sapiens, UniProt P24941); assay: Inhibition of CDK2 (unknown origin) relative to control; conditions: concentration not given here
[2] = molecular target: Cyclin-dependent kinase 1 (Homo sapiens) (UniProt P06493); assay: Inhibition of CDK1 (unknown origin) relative to control; conditions: concentration not given here
[3] = molecular target: Cyclin-dependent kinase 14/Cyclin-Y (Homo sapiens, UniProt O94921+Q8ND76); assay: Competitive irreversible inhibition of CDK14/cyclin Y (unknown origin) in presence of Km ATP; format: protein-complex assay
[4] = molecular target: Receptor-type tyrosine-protein kinase FLT3 (Homo sapiens, UniProt P36888, D835V); assay: Binding affinity to human FLT3 D835V mutant
[5] = molecular target: Cyclin-dependent kinase 4/cyclin D1 (Homo sapiens, UniProt P11802); assay: Inhibition of human CDK4/cyclinD1; format: protein-complex assay
[6] = molecular target: Serine/threonine-protein kinase Nek10 (Homo sapiens, UniProt Q6ZWH5); assay: Binding affinity to NEK10 (unknown origin)
[7] = molecular target: NUAK family SNF1-like kinase 2 (Homo sapiens, UniProt Q9H093); assay: Binding affinity to SNARK (unknown origin)
[8] = molecular target: Receptor-type tyrosine-protein kinase FLT3 (Homo sapiens, UniProt P36888, ITD); assay: Binding affinity to human FLT3 ITD mutant
[9] = molecular target: CDK9/Cyclin-H (Homo sapiens, UniProt P50750+P51946); assay: Inhibition of CDK9/cyclin H (unknown origin); format: protein-complex assay
Chain of CDK9/Cyclin-H (P51946 whole entry): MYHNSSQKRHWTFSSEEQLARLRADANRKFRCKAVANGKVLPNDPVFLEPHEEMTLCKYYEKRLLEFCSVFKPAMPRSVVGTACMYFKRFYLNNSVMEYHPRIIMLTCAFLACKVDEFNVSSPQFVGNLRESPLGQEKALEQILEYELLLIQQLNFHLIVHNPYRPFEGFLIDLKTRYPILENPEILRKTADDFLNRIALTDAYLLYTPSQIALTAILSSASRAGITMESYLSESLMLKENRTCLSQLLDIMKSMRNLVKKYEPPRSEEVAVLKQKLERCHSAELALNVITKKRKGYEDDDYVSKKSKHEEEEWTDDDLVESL
Chain of CDK9/Cyclin-H (P50750 whole entry): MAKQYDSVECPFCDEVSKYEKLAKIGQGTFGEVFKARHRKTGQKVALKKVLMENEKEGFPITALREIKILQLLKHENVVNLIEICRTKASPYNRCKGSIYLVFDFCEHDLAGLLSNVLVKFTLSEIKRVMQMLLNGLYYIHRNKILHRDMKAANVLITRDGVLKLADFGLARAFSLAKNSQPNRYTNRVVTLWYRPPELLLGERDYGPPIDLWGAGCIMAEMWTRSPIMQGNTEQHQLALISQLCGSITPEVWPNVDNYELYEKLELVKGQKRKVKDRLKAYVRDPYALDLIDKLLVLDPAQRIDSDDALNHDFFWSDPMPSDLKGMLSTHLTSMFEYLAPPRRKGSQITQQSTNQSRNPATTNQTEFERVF

[10] = molecular target: T2, Cyclin-dependent kinase 2/cyclin E1 (Homo sapiens, UniProt P24941); assay: Inhibition of human CDK2/cyclin E; format: protein-complex assay
[11] = molecular target: T3, CDK12/Cyclin K (Homo sapiens, UniProt Q9NYV4)
T3 sequence (O75909 whole entry): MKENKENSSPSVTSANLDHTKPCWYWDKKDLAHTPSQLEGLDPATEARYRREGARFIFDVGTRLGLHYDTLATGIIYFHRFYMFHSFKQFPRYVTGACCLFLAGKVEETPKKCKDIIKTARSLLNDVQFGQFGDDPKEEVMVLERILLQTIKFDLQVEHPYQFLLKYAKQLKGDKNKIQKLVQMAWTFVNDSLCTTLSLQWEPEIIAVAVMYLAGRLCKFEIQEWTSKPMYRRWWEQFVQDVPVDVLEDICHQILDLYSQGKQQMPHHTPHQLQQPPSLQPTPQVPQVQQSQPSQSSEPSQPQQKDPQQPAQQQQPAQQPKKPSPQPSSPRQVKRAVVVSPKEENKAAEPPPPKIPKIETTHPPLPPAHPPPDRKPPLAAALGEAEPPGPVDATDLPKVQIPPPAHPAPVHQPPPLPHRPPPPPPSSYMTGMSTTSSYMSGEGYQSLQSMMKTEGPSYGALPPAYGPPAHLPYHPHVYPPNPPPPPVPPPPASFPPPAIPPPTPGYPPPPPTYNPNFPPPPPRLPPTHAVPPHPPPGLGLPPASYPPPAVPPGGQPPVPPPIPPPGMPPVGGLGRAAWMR
T3 sequence (Q9NYV4 whole entry): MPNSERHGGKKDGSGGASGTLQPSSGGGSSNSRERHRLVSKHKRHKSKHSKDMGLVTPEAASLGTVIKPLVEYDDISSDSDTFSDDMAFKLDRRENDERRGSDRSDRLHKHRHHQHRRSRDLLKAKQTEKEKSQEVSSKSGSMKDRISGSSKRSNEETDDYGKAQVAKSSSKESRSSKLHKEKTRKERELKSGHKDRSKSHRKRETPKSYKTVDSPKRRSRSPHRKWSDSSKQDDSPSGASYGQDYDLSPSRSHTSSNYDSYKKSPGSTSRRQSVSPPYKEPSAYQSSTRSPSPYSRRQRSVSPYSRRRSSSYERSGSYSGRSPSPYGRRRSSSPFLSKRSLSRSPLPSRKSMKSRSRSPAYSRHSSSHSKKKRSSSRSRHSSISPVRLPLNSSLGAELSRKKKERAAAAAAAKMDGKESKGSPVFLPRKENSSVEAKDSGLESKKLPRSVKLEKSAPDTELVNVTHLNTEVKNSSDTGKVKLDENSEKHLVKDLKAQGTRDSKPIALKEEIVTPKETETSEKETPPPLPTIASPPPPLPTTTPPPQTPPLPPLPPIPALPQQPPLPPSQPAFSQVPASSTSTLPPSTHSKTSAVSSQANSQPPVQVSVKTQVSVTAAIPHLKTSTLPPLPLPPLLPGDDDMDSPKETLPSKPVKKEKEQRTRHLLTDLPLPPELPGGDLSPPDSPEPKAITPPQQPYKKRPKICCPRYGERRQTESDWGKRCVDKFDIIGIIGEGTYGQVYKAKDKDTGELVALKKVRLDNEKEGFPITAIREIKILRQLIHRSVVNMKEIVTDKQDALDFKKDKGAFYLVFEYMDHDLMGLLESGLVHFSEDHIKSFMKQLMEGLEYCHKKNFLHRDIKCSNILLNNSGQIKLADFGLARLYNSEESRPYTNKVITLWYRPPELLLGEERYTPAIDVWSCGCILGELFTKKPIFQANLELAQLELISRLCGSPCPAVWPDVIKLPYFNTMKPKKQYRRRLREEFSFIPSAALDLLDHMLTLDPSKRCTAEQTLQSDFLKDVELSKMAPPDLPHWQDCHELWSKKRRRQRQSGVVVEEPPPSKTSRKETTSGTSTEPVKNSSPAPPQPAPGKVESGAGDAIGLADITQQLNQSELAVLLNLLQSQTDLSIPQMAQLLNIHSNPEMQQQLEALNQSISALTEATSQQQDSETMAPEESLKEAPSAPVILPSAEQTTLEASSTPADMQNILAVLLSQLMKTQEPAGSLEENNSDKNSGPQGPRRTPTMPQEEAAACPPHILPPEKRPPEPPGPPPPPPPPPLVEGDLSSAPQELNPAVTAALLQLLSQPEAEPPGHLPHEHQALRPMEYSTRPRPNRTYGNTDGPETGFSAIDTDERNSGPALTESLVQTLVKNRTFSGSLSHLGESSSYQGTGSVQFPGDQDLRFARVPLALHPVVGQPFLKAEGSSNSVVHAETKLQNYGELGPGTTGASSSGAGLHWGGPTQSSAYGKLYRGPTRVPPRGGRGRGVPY

[12] = molecular target: Cyclin-dependent kinase 13/Cyclin-K (Homo sapiens, UniProt Q14004)
[13] = system: HL-60; assay: Antiproliferative activity against human HL60 cells after 72 hrs by CellTiter-Glo assay; format: functional, cell-based; conditions: HL-60, 72 h
[14] = molecular target: T3, CDK12/Cyclin K; assay: Competitive irreversible inhibition of CDK12/cyclinK (unknown origin) in presence of Km ATP; format: protein-complex assay
[15] = Clearance in mouse; format: ADME, organism-based; conditions: in vivo
[16] = molecular target: Cyclin-dependent kinase 5 (Homo sapiens, UniProt Q00535); assay: Competitive reversible inhibition of CDK5 (unknown origin)
Chain of Cyclin-dependent kinase 5 (Q00535 whole entry): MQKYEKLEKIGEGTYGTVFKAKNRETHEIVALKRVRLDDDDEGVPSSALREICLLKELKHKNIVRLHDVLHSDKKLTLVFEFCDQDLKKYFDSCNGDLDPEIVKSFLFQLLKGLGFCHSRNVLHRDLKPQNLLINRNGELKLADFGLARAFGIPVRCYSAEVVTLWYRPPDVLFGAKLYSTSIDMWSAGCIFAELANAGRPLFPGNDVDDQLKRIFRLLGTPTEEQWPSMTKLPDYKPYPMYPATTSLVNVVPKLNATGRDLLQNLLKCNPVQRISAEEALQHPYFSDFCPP

[17] = molecular target: T2, Cyclin-dependent kinase 2/cyclin E1; assay: Competitive reversible inhibition of CDK2/cyclin E (unknown origin); format: protein-complex assay
[18] = molecular target: Cyclin-dependent kinase 8 (Homo sapiens, UniProt P49336); assay: Competitive reversible inhibition of CDK8 (unknown origin)
Chain of Cyclin-dependent kinase 8 (P49336 whole entry): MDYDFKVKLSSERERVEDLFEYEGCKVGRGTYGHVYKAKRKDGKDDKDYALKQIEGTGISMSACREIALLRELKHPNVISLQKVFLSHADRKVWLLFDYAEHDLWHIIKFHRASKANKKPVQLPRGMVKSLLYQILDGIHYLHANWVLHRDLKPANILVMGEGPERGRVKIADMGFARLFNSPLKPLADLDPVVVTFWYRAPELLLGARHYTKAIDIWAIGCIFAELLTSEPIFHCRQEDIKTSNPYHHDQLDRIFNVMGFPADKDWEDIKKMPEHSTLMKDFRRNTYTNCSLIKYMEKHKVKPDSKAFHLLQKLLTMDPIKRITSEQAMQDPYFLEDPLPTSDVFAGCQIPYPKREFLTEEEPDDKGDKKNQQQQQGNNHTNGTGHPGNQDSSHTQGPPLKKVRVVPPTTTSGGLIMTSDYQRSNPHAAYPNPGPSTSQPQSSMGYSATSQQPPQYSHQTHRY

[19] = molecular target: T2, Cyclin-dependent kinase 2/cyclin E1; assay: Competitive irreversible inhibition of CDK2/cyclin E (unknown origin); format: protein-complex assay
[20] = molecular target: T4, CDK9/cyclin T1 (Homo sapiens, UniProt P50750); assay: Competitive irreversible inhibition of CDK9/cyclin T (unknown origin); format: protein-complex assay
T4 sequence (O60563 whole entry): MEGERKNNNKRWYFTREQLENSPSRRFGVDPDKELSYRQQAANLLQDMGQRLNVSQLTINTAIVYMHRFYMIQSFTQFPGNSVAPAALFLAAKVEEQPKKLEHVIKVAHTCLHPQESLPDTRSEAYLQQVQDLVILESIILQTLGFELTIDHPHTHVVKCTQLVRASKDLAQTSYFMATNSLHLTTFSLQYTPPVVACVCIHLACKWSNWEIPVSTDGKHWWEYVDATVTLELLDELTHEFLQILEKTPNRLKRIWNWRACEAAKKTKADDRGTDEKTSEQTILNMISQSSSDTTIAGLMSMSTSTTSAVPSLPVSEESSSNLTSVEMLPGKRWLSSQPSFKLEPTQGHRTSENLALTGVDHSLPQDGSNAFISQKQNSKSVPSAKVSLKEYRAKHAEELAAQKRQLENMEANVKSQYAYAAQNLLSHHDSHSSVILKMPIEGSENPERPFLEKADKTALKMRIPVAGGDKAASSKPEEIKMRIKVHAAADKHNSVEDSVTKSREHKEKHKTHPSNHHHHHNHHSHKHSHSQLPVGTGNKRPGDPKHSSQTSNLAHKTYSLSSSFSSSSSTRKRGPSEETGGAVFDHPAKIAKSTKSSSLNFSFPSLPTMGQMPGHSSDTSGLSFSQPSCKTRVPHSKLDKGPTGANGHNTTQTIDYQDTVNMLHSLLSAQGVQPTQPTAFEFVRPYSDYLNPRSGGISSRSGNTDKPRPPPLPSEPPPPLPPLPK
T4 sequence (P50750 whole entry): as the sequence (P50750 whole entry) above

[21] = molecular target: T5, CDK7/Cyclin H/MNAT1 (Homo sapiens) (UniProt P51946+P50613+P51948); assay: Competitive irreversible inhibition of CDK7/cyclinH/MAT1 (unknown origin) assessed as inactivation constant using 5-FAM YSPTSPSYSPTSPSYSPTSPSKKKK as substrate; format: protein-complex assay
[22] = molecular target: T4, CDK9/cyclin T1; assay: Competitive irreversible inhibition of CDK9/cyclin T (unknown origin) in presence of Km ATP; format: protein-complex assay
[23] = molecular target: T6, CDK7/Cyclin H/MNAT1 (Homo sapiens, UniProt P50613); assay: Competitive irreversible inhibition of CDK7/cyclinH/MAT1 (unknown origin) using 5-FAM YSPTSPSYSPTSPSYSPTSPSKKKK as substrate; format: protein-complex assay
T6 sequence (P51946 whole entry): as the sequence (P51946 whole entry) above
T6 sequence (P50613 whole entry): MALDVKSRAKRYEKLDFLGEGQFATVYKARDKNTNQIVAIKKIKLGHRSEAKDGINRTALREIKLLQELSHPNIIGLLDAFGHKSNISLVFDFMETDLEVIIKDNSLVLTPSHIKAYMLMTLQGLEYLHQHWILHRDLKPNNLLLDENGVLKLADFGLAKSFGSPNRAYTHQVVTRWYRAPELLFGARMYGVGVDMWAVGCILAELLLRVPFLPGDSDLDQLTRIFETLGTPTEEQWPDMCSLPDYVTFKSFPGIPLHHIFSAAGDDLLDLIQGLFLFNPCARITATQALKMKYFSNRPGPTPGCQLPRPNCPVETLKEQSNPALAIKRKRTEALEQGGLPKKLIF
T6 sequence (P51948 whole entry, further chain): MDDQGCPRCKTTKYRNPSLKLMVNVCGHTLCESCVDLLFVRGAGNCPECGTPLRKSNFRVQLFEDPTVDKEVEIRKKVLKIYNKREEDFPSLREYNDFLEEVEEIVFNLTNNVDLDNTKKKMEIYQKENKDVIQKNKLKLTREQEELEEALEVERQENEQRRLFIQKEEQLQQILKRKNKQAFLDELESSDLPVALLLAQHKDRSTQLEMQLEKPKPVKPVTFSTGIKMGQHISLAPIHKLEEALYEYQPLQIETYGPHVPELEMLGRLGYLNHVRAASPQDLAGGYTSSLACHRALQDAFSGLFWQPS

[24] = molecular target: T6, CDK7/Cyclin H/MNAT1; assay: Competitive irreversible inhibition of CDK7/cyclinH/MAT1 (unknown origin) using 5-FAM YSPTSPSYSPTSPSYSPTSPSKKKK as substrate in presence of 2 mM ATP; format: protein-complex assay
[25] = molecular target: T6, CDK7/Cyclin H/MNAT1; assay: Competitive irreversible inhibition of CDK7/cyclinH/MAT1 (unknown origin) using 5-FAM YSPTSPSYSPTSPSYSPTSPSKKKK as substrate in presence of Km ATP; format: protein-complex assay
[26] = molecular target: T5, CDK7/Cyclin H/MNAT1 (Homo sapiens); assay: Ratio of Ki CDK7/cyclinH/MAT1 (unknown origin) to Kinact CDK7/cyclinH/MAT1 (unknown origin) assessed as inactivation constant; format: protein-complex assay
[27] = molecular target: T6, CDK7/Cyclin H/MNAT1; assay: Competitive irreversible inhibition of CDK7/cyclinH/MAT1 (unknown origin); format: protein-complex assay
[28] = molecular target: Cyclin-dependent kinase 6 (Homo sapiens, UniProt Q00534); assay: Competitive reversible inhibition of CDK6 (unknown origin)
[29] = system: HCT-116; assay: Anti-tumor activity in human HCT116 cells xenografted in in vivo animal model assessed tumor growth inhibition at 100 mg/kg, qd after 13 days relative to control; format: functional; conditions: HCT-116, 312 h, read-out: TGI
[30] = molecular target: Cyclin-dependent kinase 4 (Homo sapiens, UniProt P11802); assay: Competitive reversible inhibition of CDK4 (unknown origin)
[31] = molecular target: T6, CDK7/Cyclin H/MNAT1; assay: Competitive irreversible inhibition of CDK7/cyclinH/MAT1 (unknown origin) in presence of 1 mM ATP; format: protein-complex assay
[32] = system: Hs 683; assay: Antiproliferative activity against human Hs683 cells; format: functional, cell-based
[33] = molecular target: T1, Cyclin-dependent kinase 2; assay: Inhibition of CDK2 (unknown origin)
[34] = Antiproliferative activity against imatinib-resistant human K562R-2 cells; format: functional
[35] = Antiproliferative activity against imatinib-resistant human K562R-1 cells; format: functional
[36] = system: K562; assay: Antiproliferative activity against wild type human K562 cells; format: functional, cell-based
[37] = system: MCF7; assay: Antiproliferative activity against human MCF7 cells; format: functional, cell-based
[38] = system: OVCAR-3; assay: Antiproliferative activity against human OVCAR3 cells; format: functional, cell-based
[39] = molecular target: T1, Cyclin-dependent kinase 2; assay: Binding affinity to CDK2 (unknown origin) assessed as inactivation constant
[40] = molecular target: T1, Cyclin-dependent kinase 2; assay: Binding affinity to CDK2 (unknown origin) assessed as association rate constant
[41] = molecular target: T1, Cyclin-dependent kinase 2; assay: Binding affinity to CDK2 (unknown origin) assessed as dissociation rate constant

Compound: C=CC(=O)N1CCN(C(=O)OC(C)(C)C)c2ccccc21
inhibition [1]: 83%
inhibition [2]: 2%

Compound: CN(C)C/C=C/C(=O)Nc1cccc(S(=O)(=O)N2CCC(NC(=O)c3n[nH]cc3NC(=O)c3c(Cl)cc(Cl)cc3Cl)CC2)c1
IC50 [3]: 88 nM

Compound: CN(C)C/C=C/C(=O)Nc1ccc(C(=O)Nc2cccc(Nc3ncc(Cl)c(-c4c[nH]c5ccccc45)n3)c2)cc1
IC50 [11]: 893 nM
IC50 [12]: 628 nM
EC50 [13]: 38 nM
IC50 [14]: 371 nM
clearance [15]: 129 mL/min/kg

Compound: C=CC(=O)N1CCN(C(=O)OC)c2ccccc21
inhibition [1]: 5%
inhibition [2]: -2%

Compound: CC[C@H](Nc1nc(NCc2cnc(C)cc2C)c2ncn(C(C)C)c2n1)[C@@H](C)O [CYC-065]
IC50 [16]: 23 nM
IC50 [17]: 5 nM

Compound: CC(C)c1cnn2c(NCc3ccccc3)cc(N[C@@H](CO)[C@H](O)CO)nc12
IC50 [18]: 90 nM

Compound: CN(C)C/C=C/C(=O)Nc1ccc(C(=O)N[C@H]2CCC[C@@H](Nc3ncc(Cl)c(-c4c[nH]c5ccccc45)n3)C2)nc1
Kinact [21]: 11.3 h⁻¹
IC50 [22]: 226 nM
Ki [23]: 62.5 nM
IC50 [24]: 205 nM
IC50 [25]: 23 nM
EC50 [13]: 3 nM
Ratio [26]: 0.05 µM⁻¹ s⁻¹
clearance [15]: 29 mL/min/kg
EC50 [27]: 4 nM

Compound: CN(C)C/C=C/C(=O)Nc1ccc(C(=O)N[C@H]2CCC[C@@H](Nc3ncc(Cl)c(-c4c[nH]c5ccccc45)n3)C2)cc1
Kinact [21]: 4.8 h⁻¹
IC50 [22]: 627 nM
Ki [23]: 105 nM
IC50 [24]: 908 nM
IC50 [25]: 112 nM
EC50 [13]: 13 nM
Ratio [26]: 0.013 µM⁻¹ s⁻¹
IC50 [14]: 312 nM
clearance [15]: 17 mL/min/kg
EC50 [27]: 48 nM

Compound: C=CC(=O)Nc1ccc(C(=O)Nc2n[nH]c3c2CN(C(=O)N[C@H](CN(C)C)c2ccccc2)C3(C)C)cc1
IC50 [31]: 53 nM

Compound: CN1CCN(c2ccc(Nc3ncc4cc5n(c4n3)C3(CCCCC3)CNC5=O)nc2)CC1 [TRILACICLIB]
IC50 [32]: 30 nM

Compound: O=C1Nc2ccc([N+](=O)[O-])cc2/C1=C1/Nc2ccc(O)cc2/C1=N\O
IC50 [33]: 2 to 60 nM
IC50 [34]: 711 nM
IC50 [35]: 856 nM
IC50 [36]: 669 nM

Compound: CN(C)C/C=C/C(=O)Nc1ccc(C(=O)N2CCC[C@@H](Nc3ncc(Cl)c(-c4c[nH]c5ccccc45)n3)C2)cc1
IC50 [22]: 834 nM

Compound: CC(C)c1cnn2c(NCc3ccccc3)cc(NCCCCCCN)nc12
IC50 [28]: 47000 nM
IC50 [16]: 3000 nM
IC50 [18]: 4200 nM
IC50 [30]: 33000 nM

More lines, main results first:

Kd [4]: 22 nM
EC50 [5]: < 100 nM
Kd [6]: 0.2 nM
Kd [7]: 0.7 nM
Kd [8]: 6.5 nM
IC50 [9]: 280 nM
EC50 [10]: < 100 nM
Compound: CC(C)N1CCN(c2ccc(Nc3ncc4cc5n(c4n3)C3(CCCCC3)CNC5=O)nc2)CC1 [LEROCICLIB]

IC50 [19]: 932 nM
IC50 [20]: 20 nM
Compound: C=CC(=O)Nc1cccc(Nc2cc(N3CCCC[C@H]3CCO)nc3c(CC)cnn23)c1

IC50 [28]: 34000 nM
IC50 [16]: 9400 nM
IC50 [18]: 1200 nM
IC50 [30]: 49000 nM
Compound: CC(C)c1cnn2c(NCc3ccccc3)cc(NC[C@H]3CCNC[C@@H]3O)nc12 [CT-7001]
inhibition in vivo at 100 mg/kg [29]: 60%

IC50 [22]: 914 nM
Ki [23]: 17.4 nM
IC50 [24]: 590 nM
IC50 [25]: 84 nM
EC50 [13]: 8 nM
IC50 [14]: 20 nM
clearance [15]: 6 mL/min/kg
EC50 [27]: 13 nM
Compound: CN(C)C/C=C/C(=O)Nc1ccc(C(=O)N[C@@]2(C)CCC[C@@H](Nc3ncc(Cl)c(-c4c[nH]c5ccccc45)n3)C2)nc1

IC50 [37]: 48 nM
IC50 [38]: 48 nM
Compound: C[C@@]1(O)CCC[C@H]1n1c(=O)c(C(F)F)cc2cnc(NC3CCN(S(C)(=O)=O)CC3)nc21 [EBVACICLIB]

Kinact [39]: 5 ×10³ /M/s
K [40]: 0.55 ×10⁶ /M/s
K [41]: 0.07 s⁻¹
Compound: C=CS(=O)(=O)c1ccc(Nc2nc(OCC3CCCCC3)c3nc[nH]c3n2)cc1
